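Each compound was tested at five concentrations against cells in 96-well plates for 48 hours. GI50: concentration for 50% inhibition of growth. TGI: total growth inhibition.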
Legend:
Assay in all cases: NCI anticancer screen, dose series, 48 h
[1] = system: NCI-H460 lung
[2] = system: RXF 393 renal
[3] = system: 786-0 renal
[4] = system: CCRF-CEM leukemia
[5] = system: MALME-3M melanoma
[6] = system: SK-MEL-5 melanoma
[7] = system: UO-31 renal
[8] = system: ACHN renal
[9] = system: HCC-2998 colon
[10] = system: OVCAR-5 ovarian

`C[C@@H]1OC(=O)NN=C1c1ccc(-c2ccc(F)cc2)c(C(F)(F)F)c1` showed a GI50 [1] of 11.7 µM, a TGI [1] of 25.6 µM and a GI50 [2] of 1.58 µM. It also gave a TGI [2] of 7.62 µM, a GI50 [3] of 13.7 µM and a TGI [3] of 30.3 µM. The GI50 [4] was 8.25 µM, the TGI [4] was > 100 µM and the GI50 [5] was 12.5 µM. It also gave a TGI [5] of 25.8 µM, a GI50 [6] of 2.28 µM and a TGI [6] of 9.01 µM. For the same compound, the GI50 [7] was 7.79 µM, the TGI [7] was 20.9 µM and the GI50 [8] was 11.2 µM. For the same compound, the TGI [8] was 23.2 µM, the GI50 [9] was 10.6 µM and the TGI [9] was 23.1 µM. For the same compound, the GI50 [10] was 5.02 µM and the TGI [10] was 21.6 µM.

For `Cc1ccc(-n2c3c(c4c(CN)c(O)ccc42)CCc2ccccc2C3=O)cc1`, the GI50 [1] was 7.33 µM, the TGI [1] was 28.4 µM and the GI50 [2] was 17 µM. It also gave a TGI [2] of 36.7 µM, a GI50 [3] of 14.6 µM and a TGI [3] of 28.8 µM. For the same compound, the GI50 [4] was 2.66 µM, the TGI [4] was 8.44 µM and the GI50 [5] was 4.58 µM. For the same compound, the TGI [5] was 17.9 µM, the GI50 [6] was 1.61 µM and the TGI [6] was 3.01 µM. It also gave a GI50 [7] of 8.2 µM, a TGI [7] of 22.1 µM and a GI50 [8] of 16.7 µM. For the same compound, the TGI [8] was 31.1 µM, the GI50 [9] was 4.05 µM and the TGI [9] was 15.6 µM. For the same compound, the GI50 [10] was 15.8 µM and the TGI [10] was 30.4 µM.

`CC(=Nc1ccccc1)C1=C(O)C(Cc2ccc(F)cc2)NC1=O` (centres undefined) was tested, and the GI50 [1] was 0.44 µM, the TGI [1] was > 100 µM and the GI50 [2] was 0.339 µM. The TGI [2] was 1.74 µM, the GI50 [3] was 9.67 µM and the TGI [3] was > 100 µM. The GI50 [4] was 1.81 µM, the TGI [4] was > 100 µM and the GI50 [5] was 0.661 µM. For the same compound, the TGI [5] was > 100 µM, the GI50 [6] was 0.472 µM and the TGI [6] was > 100 µM. The GI50 [7] was 5.42 µM, the TGI [7] was > 100 µM and the GI50 [8] was 8.24 µM. The TGI [8] was > 100 µM, the GI50 [9] was 1.73 µM and the TGI [9] was 40.1 µM. The GI50 [10] was 5.21 µM and the TGI [10] was > 100 µM.

In the case of `COc1cc(OC)cc(C(=O)Cc2c(C(=O)c3ccccc3)c3ccccc3n2C(=O)c2ccccc2)c1`, the TGI [1] is reported as > 100 µM, the TGI [2] is reported as > 100 µM and the TGI [3] is reported as > 100 µM. For the same compound, the TGI [4] was > 100 µM, the TGI [5] was > 100 µM and the TGI [6] was 35.1 µM. The TGI [7] was > 100 µM, the TGI [8] was > 100 µM and the TGI [9] was > 100 µM. For the same compound, the TGI [10] was > 100 µM.

With `COc1ccc(C[C@H]2NC[C@H](O)[C@H]2OC(C)=O)cc1` the TGI [1] was 0.611 µM, the TGI [2] was 0.399 µM and the TGI [3] was 0.137 µM. The TGI [4] was 0.863 µM, the TGI [5] was 0.708 µM and the GI50 [6] was 0.0176 µM. It also gave a TGI [6] of 0.0585 µM, a TGI [7] of 0.181 µM and a TGI [8] of 0.122 µM. For the same compound, the TGI [9] was 0.0862 µM and the TGI [10] was 14.5 µM.

`CN1CCN(c2ccc(-c3cccc(CN4CCOCC4)c3)cc2NC(=O)c2c[nH]c(=O)cc2C(F)(F)F)CC1` was tested, and the GI50 [1] was 45.8 µM, the TGI [1] was > 100 µM and the GI50 [2] was 23.1 µM. The TGI [2] was > 100 µM, the GI50 [3] was 41.8 µM and the TGI [3] was > 100 µM. For the same compound, the GI50 [4] was 58.8 µM, the TGI [4] was > 100 µM and the GI50 [5] was 21.6 µM. It also gave a TGI [5] of 51.4 µM, a GI50 [6] of 14.2 µM and a TGI [6] of 28.3 µM. For the same compound, the GI50 [7] was 49 µM, the TGI [7] was > 100 µM and the GI50 [8] was 40.4 µM. For the same compound, the TGI [8] was > 100 µM, the GI50 [9] was > 100 µM and the TGI [9] was > 100 µM. The GI50 [10] was > 100 µM and the TGI [10] was > 100 µM.

`CCOC(=O)C(=O)C(/C(=N/N(C)C)C(=O)Nc1ccc(C)cc1C)c1nc2ccccc2[nH]c1=O` (centres undefined) was tested, and the TGI [1] was > 100 µM, the TGI [2] was > 100 µM and the TGI [3] was > 100 µM. For the same compound, the TGI [4] was > 100 µM, the TGI [5] was > 100 µM and the TGI [6] was > 100 µM. For the same compound, the TGI [7] was > 100 µM, the TGI [8] was > 100 µM and the TGI [9] was > 100 µM. For the same compound, the TGI [10] was > 100 µM.

In the case of `O=C1c2ccccc2-c2c1c1ccc([N+](=O)[O-])cc1c(=O)n2CCCn1ccnc1`, the GI50 [1] is reported as < 0.0275 µM, the TGI [1] is reported as 7.98 µM and the GI50 [2] is reported as 0.16 µM. It also gave a TGI [2] of 2.43 µM, a GI50 [3] of 0.218 µM and a TGI [3] of 0.894 µM. For the same compound, the TGI [4] was 0.785 µM, the GI50 [5] was 0.148 µM and the TGI [5] was 1.97 µM. For the same compound, the GI50 [6] was < 0.019 µM, the TGI [6] was 0.104 µM and the GI50 [7] was 0.724 µM. For the same compound, the TGI [7] was 2.62 µM, the TGI [8] was 0.704 µM and the GI50 [9] was 2 µM. For the same compound, the TGI [9] was 5.57 µM, the GI50 [10] was 0.984 µM and the TGI [10] was 4.25 µM.

In the case of `Cc1ccc2c(c1)-c1oc(=O)c(-c3cc4ccccc4oc3=O)cc1C(O)O2` (centres undefined), the GI50 [1] is reported as 22.3 µM, the TGI [1] is reported as > 100 µM and the GI50 [2] is reported as 12.8 µM. It also gave a TGI [2] of 48.2 µM, a GI50 [3] of 20.9 µM and a TGI [3] of 39.7 µM. For the same compound, the GI50 [4] was 42.2 µM, the TGI [4] was > 100 µM and the GI50 [5] was 10.2 µM. It also gave a TGI [5] of 28.2 µM, a GI50 [6] of 19.1 µM and a TGI [6] of 33.2 µM. It also gave a GI50 [7] of 16.7 µM, a TGI [7] of 37.3 µM and a GI50 [8] of 10.2 µM. The TGI [8] was 24.4 µM, the GI50 [9] was 18.5 µM and the TGI [9] was 36.2 µM. The GI50 [10] was 20.8 µM and the TGI [10] was 49.8 µM.

With `CCOc1ncnc2ccc(Cl)c(I)c12` the TGI [1] was > 100 µM, the TGI [2] was 60.7 µM and the TGI [3] was > 100 µM. For the same compound, the TGI [4] was > 100 µM, the TGI [5] was > 100 µM and the TGI [6] was > 100 µM. The TGI [7] was 75.5 µM, the TGI [8] was > 100 µM and the TGI [9] was > 100 µM. For the same compound, the TGI [10] was > 100 µM.

Compound `CN1CCN(Cc2ccc(NC(=O)c3cccc(C#Cc4c(N)ncc5ccc(F)cc45)c3)cc2C(F)(F)F)CC1` has a GI50 [1] of 0.885 µM, a TGI [1] of 1.72 µM and a GI50 [2] of 0.697 µM. It also gave a TGI [2] of 1.4 µM, a GI50 [3] of 0.966 µM and a TGI [3] of 1.74 µM. For the same compound, the GI50 [4] was 0.989 µM, the TGI [4] was 2.58 µM and the GI50 [5] was 0.569 µM. It also gave a TGI [5] of 1.35 µM, a GI50 [6] of 0.896 µM and a TGI [6] of 1.68 µM. It also gave a GI50 [7] of 0.533 µM, a TGI [7] of 1.27 µM and a GI50 [8] of 0.509 µM. The TGI [8] was 1.1 µM, the GI50 [9] was 0.969 µM and the TGI [9] was 1.84 µM. The GI50 [10] was 0.849 µM and the TGI [10] was 1.76 µM.

Source: PubChem BioAssay (NCI)
